This assay concerns TEAD-dependent transcription. The assay is described as follows: Inhibitor activity against TEAD-dependent transcription in a cell-based reporter assay (MSTO-211H+12XGTIIC luciferase). Conditions: Homo sapiens; MSTO-211H+12XGTIIC cells, 24 hours incubation, luciferase luminescence normalized to cell viability fluorescence, geometric mean; read-out: MSTO-211H GMean IC50 (uM) Cell Assay Reporter Cell Variant: TEAD. The source says:
Determine Inhibitor Activity Against TEAD-Dependent Transcription in a Cell-Based Reporter Assay
The human mesothelioma cell line MSTO-211H was stably transfected with a pGL4.21 plasmid containing a synthetic promoter with 12 copies of the GTIIC TEAD response element that drives the expression of a luciferase reporter gene^1 using Lipofectamine transfection reagent (Thermo Fisher). Transfected cells were selected using puromycin and single cell clones expressing this construct (referred to as MSTO-211H+12XGTIIC) were generated by limiting dilution. MSTO-211H cells was characterized by genetic alterations in key components of the Hippo pathway^2, resulting in up-regulation of YAP/TEAD-mediated transcription. […] To evaluate TEAD inhibitors, the MSTO-211H+12XGTIIC cell line was seeded in a 96-well plate in 50 μL of culture media at 1×10^4 cells per well and incubated at 37° C. overnight. Serial dilutions of compounds (in total volume of 50 μL of culture media) were added to the cells and incubated at 37° C. for 24 hours. Each plate included cells treated with DMSO as high controls and cells treated with 20 μM of the reference compound K-975 (a known TEAD inhibitor)^3 as low controls. Cell viability was assayed by the addition of 25 μL of CellTiter-Fluor reagent (Promega) followed by a 30-minute incubation at 37° C. and quantification of the fluorescence signal (Ex400/Em505). Subsequently, luciferase expression was assayed by the addition of 25 μL of ONE-Glo reagent (Promega) followed by a 10-minute incubation at room temperature and quantification of the luminescence signal. The luminescence signal was normalized to the fluorescence signal to correct for any loss in cell viability over the 24-hour compound incubation period. The percentage of inhibition of normalized luminescence signal, indicative of compound-mediated inhibition of TEAD-dependent transcription, at individual compound concentrations relative to high and low controls was calculated. The data were analyzed by using nonlinear regression to generate IC50 values for individual compounds.

Experimental findings from patent publication US20240174659A1, “COMPOUNDS AND METHODS FOR YAP/TEAD MODULATION AND INDICATIONS THEREFOR” (Opna Bio SA, priority 2021, published 2024) are described below.

Some results are limits rather than exact numbers.

Consider `C=CC(=O)N1CCc2ccc(OCc3ccc(F)cc3)cc2C1` [P-0001, 1-(7-((4-fluorobenzyl)oxy)-3,4-dihydroisoquinolin-2(1H)-yl)prop-2-en-1-one], for which the IC50 lay in the range of 0.001 to 0.5 µM. The value for `C=CC(=O)N1CCc2ccc(OCc3ccccc3)cc2C1` [P-0002, 1-(7-(benzyloxy)-3,4-dihydroisoquinolin-2(1H)-yl)prop-2-en-1-one] was 0.001 to 0.5 µM. The value for `C=CC(=O)N1CCc2cccc(Nc3cccc(F)c3)c2C1` [P-0003, 1-(8-((3-fluorophenyl)amino)-3,4-dihydroisoquinolin-2(1H)-yl)prop-2-en-1-one] was 0.5 to 20 µM. The result for `C=CC(=O)N1CCc2ccc(Nc3cccc(F)c3)cc2C1` [P-0004, 1-(7-((3-fluorophenyl)amino)-3,4-dihydroisoquinolin-2(1H)-yl)prop-2-en-1-one] reads 0.001 to 0.5 µM. In the case of `C=CC(=O)N1CCc2cccc(Oc3cccc(F)c3)c2C1` [P-0005, 1-(8-(3-fluorophenoxy)-3,4-dihydroisoquinolin-2(1H)-yl)prop-2-en-1-one], the concentration for half-maximal inhibition (IC50) fell in the range of 0.001 to 0.5 µM. The result for `C=CC(=O)N1CCc2ccc(Oc3cccc(F)c3)cc2C1` [P-0006, 1-(7-(3-fluorophenoxy)-3,4-dihydroisoquinolin-2(1H)-yl)prop-2-en-1-one] reads 0.001 to 0.5 µM; that for `C=CC(=O)N1CCc2ccc(Oc3ccccc3)cc2C1` [P-0007, 1-(7-phenoxy-3,4-dihydroisoquinolin-2(1H)-yl)prop-2-en-1-one], 0.001 to 0.5 µM; that for `C=CC(=O)N1CCc2ccc(Oc3ccc(F)cc3F)cc2C1` [P-0008, 1-(7-(2,4-difluorophenoxy)-3,4-dihydroisoquinolin-2(1H)-yl)prop-2-en-1-one], 0.001 to 0.5 µM. The result for `C=CC(=O)N1CCc2ccc(OC3CCOCC3)cc2C1` [P-0009, 1-(7-((tetrahydro-2H-pyran-4-yl)oxy)-3,4-dihydroisoquinolin-2(1H)-yl)prop-2-en-1-one] reads 0.001 to 0.5 µM. The result for `C=CC(=O)N1CCc2ccc(Nc3ccccc3)cc2C1` [P-0010, 1-(7-(phenylamino)-3,4-dihydroisoquinolin-2(1H)-yl)prop-2-en-1-one] reads 0.001 to 0.5 µM; that for `C=CC(=O)N1CCc2ccc(Nc3ccnc(C(F)(F)F)c3)cc2C1` [P-0011, 1-(7-((2-(trifluoromethyl)pyridin-4-yl)amino)-3,4-dihydroisoquinolin-2(1H)-yl)prop-2-en-1-one], 0.5 to 20 µM; that for `C=CC(=O)N1CCc2ccc(Nc3ccc(C(F)(F)F)nc3)cc2C1` [P-0012, 1-(7-((6-(trifluoromethyl)pyridin-3-yl)amino)-3,4-dihydroisoquinolin-2(1H)-yl)prop-2-en-1-one], 0.5 to 20 µM. For the compound `C=CC(=O)N1CCc2ccc(Oc3ccc(F)cc3)cc2C1` [P-0013, 1-(7-(4-fluorophenoxy)-3,4-dihydroisoquinolin-2(1H)-yl)prop-2-en-1-one], the half-inhibitory concentration (IC50) lay within 0.001 to 0.5 µM. The result for `C=CC(=O)N1CCc2ccc(Oc3cccc(Cl)c3)cc2C1` [P-0014, 1-(7-(3-chlorophenoxy)-3,4-dihydroisoquinolin-2(1H)-yl)prop-2-en-1-one] reads 0.001 to 0.5 µM. The result for `C=CC(=O)N1CCc2ccc(Oc3ccc(Cl)cc3)cc2C1` [P-0015, 1-(7-(4-chlorophenoxy)-3,4-dihydroisoquinolin-2(1H)-yl)prop-2-en-1-one] reads 0.001 to 0.5 µM; that for `C=CC(=O)N1CCc2ccc(Oc3ccc(F)c(F)c3)cc2C1` [P-0016, 1-(7-(3,4-difluorophenoxy)-3,4-dihydroisoquinolin-2(1H)-yl)prop-2-en-1-one], 0.001 to 0.5 µM; that for `C=CC(=O)N1CCc2ccc(Oc3cccc(C(F)(F)F)c3)cc2C1` [P-0017, 1-(7-(3-(trifluoromethyl)phenoxy)-3,4-dihydroisoquinolin-2(1H)-yl)prop-2-en-1-one], 0.001 to 0.5 µM. Regarding `C=CC(=O)N1CCc2ccc(Oc3ccc(C(F)(F)F)cc3)cc2C1` [P-0018, 1-(7-(4-(trifluoromethyl)phenoxy)-3,4-dihydroisoquinolin-2(1H)-yl)prop-2-en-1-one], the IC50 lay within 0.001 to 0.5 µM. The result for `C=CC(=O)N1CCc2ccc(Oc3cccnc3)cc2C1` [P-019, 1-(7-(pyridin-3-yloxy)-3,4-dihydroisoquinolin-2(1H)-yl)prop-2-en-1-one] reads 0.001 to 0.5 µM; that for `C=CC(=O)N1CCc2ccc(OC3CC(F)(F)C3)cc2C1` [P-0020, 1-(7-(3,3-difluorocyclobutoxy)-3,4-dihydroisoquinolin-2(1H)-yl)prop-2-en-1-one], 0.001 to 0.5 µM. The result for `C=CC(=O)N1CCc2ccc(OC34CC5CC(CC(C5)C3)C4)cc2C1` [P-0021, 1-(7-(((3R,5R)-adamantan-1-yl)oxy)-3,4-dihydroisoquinolin-2(1H)-yl)prop-2-en-1-one] reads 0.001 to 0.5 µM; that for `C=CC(=O)N1CCc2ccc(Nc3ccccc3F)cc2C1` [P-0022, 1-(7-((2-fluorophenyl)amino)-3,4-dihydroisoquinolin-2(1H)-yl)prop-2-en-1-one], 0.001 to 0.5 µM; that for `C=CC(=O)N1CCc2ccc(Nc3ccc(F)cc3)cc2C1` [P-0023, 1-(7-((4-fluorophenyl)amino)-3,4-dihydroisoquinolin-2(1H)-yl)prop-2-en-1-one], 0.001 to 0.5 µM. The result for `C=CC(=O)N1CCc2ccc(Nc3cccc(Cl)c3)cc2C1` [P-0024, 1-(7-((3-chlorophenyl)amino)-3,4-dihydroisoquinolin-2(1H)-yl)prop-2-en-1-one] reads 0.001 to 0.5 µM; that for `C=CC(=O)N1CCc2ccc(Nc3cccc(C(F)(F)F)c3)cc2C1` [P-0025, 1-(7-((3-(trifluoromethyl)phenyl)amino) -3,4-dihydroisoquinolin-2(1H)-yl)prop-2-en-1-one], 0.001 to 0.5 µM; that for `C=CC(=O)N1CCc2ccc(N(C)c3ccccc3)cc2C1` [P-0026, 1-(7-(methyl(phenyl)amino)-3,4-dihydroisoquinolin-2(1H)-yl)prop-2-en-1-one], 0.001 to 0.5 µM. Consider `C=CC(=O)N1CCc2ccc(Oc3ccc(C(F)(F)F)nc3)cc2C1` [P-0027, 1-(7-((6-(trifluoromethyl)pyridin-3-yl)oxy)-3,4-dihydroisoquinolin-2(1H)-yl)prop-2-en-1-one], for which the concentration for half-maximal inhibition (IC50) lay in the range of 0.001 to 0.5 µM. The value for `C=CC(=O)N1CCc2ccc(OC3CCN(S(C)(=O)=O)CC3)cc2C1` [P-0028, 1-(7-((1-(methylsulfonyl)piperidin-4-yl)oxy)-3,4-dihydroisoquinolin-2(1H)-yl)prop-2-en-1-one] was 0.5 to 20 µM; that for `C=CC(=O)N1CCc2ccc(NC3CCC(F)(F)CC3)cc2C1` [P-0029, 1-(7-((4,4-difluorocyclohexyl)amino)-3,4-dihydroisoquinolin-2(1H)-yl)prop-2-en-1-one] was 0.001 to 0.5 µM. For the compound `C=CC(=O)N1CCc2cc(F)c(Oc3ccccc3)cc2C1` [P-0030, 1-(6-fluoro-7-phenoxy-3,4-dihydroisoquinolin-2(1H)-yl)prop-2-en-1-one], the IC50 was 0.001 to 0.5 µM. The result for `C=CC(=O)N1CCc2cc(F)c(Oc3cccc(F)c3)cc2C1` [P-0031, 1-(6-fluoro-7-(3-fluorophenoxy)-3,4-dihydroisoquinolin-2(1H)-yl)prop-2-en-1-one] reads 0.001 to 0.5 µM; that for `C=CC(=O)N1CCc2cc(F)c(Oc3ccc(F)cc3)cc2C1` [P-0032, 1-(6-fluoro-7-(4-fluorophenoxy)-3,4-dihydroisoquinolin-2(1H)-yl)prop-2-en-1-one], 0.001 to 0.5 µM. As for `C=CC(=O)N1CCc2ccc(Cc3ccccc3)cc2C1` [P-0033, 1-(7-benzyl-3,4-dihydroisoquinolin-2(1H)-yl)prop-2-en-1-one], the half-inhibitory concentration (IC50) was 0.001 to 0.5 µM. Consider `C=CC(=O)N1CCc2ccc(Cc3cccc(F)c3)cc2C1` [P-0034, 1-(7-(3-fluorobenzyl)-3,4-dihydroisoquinolin-2(1H)-yl)prop-2-en-1-one], for which the 50% inhibitory concentration (IC50) lay in the range of 0.001 to 0.5 µM.

With `C=CC(=O)N1CCc2ccc(Cc3ccc(F)cc3)cc2C1` [P-0035, 1-(7-(4-fluorobenzyl)-3,4-dihydroisoquinolin-2(1H)-yl)prop-2-en-1-one], the IC50 is 0.001 to 0.5 µM.

Take `C=CC(=O)N1CCc2ccc(Oc3ccc(C)nc3)cc2C1` [P-0036, 1-(7-((6-methylpyridin-3-yl)oxy)-3,4-dihydroisoquinolin-2(1H)-yl)prop-2-en-1-one]: the IC50 was in the range of 0.001 to 0.5 µM. In the case of `C=C(F)C(=O)N1CCc2ccc(Oc3cccc(F)c3)cc2C1` [P-0037, 2-fluoro-1-(7-(3-fluorophenoxy)-3,4-dihydroisoquinolin-2(1H)-yl)prop-2-en-1-one], the half-inhibitory concentration (IC50) was in the range of 0.001 to 0.5 µM. The result for `C=C(CO)C(=O)N1CCc2ccc(Oc3cccc(F)c3)cc2C1` [P-0038, 1-(7-(3-fluorophenoxy)-3,4-dihydroisoquinolin-2(1H)-yl)-2-(hydroxymethyl)prop-2-en-1-one] reads 0.001 to 0.5 µM. As for `O=C(/C=C/CN1CCOCC1)N1CCc2ccc(Oc3cccc(F)c3)cc2C1` [P-0039, (E)-1-(7-(3-fluorophenoxy)-3,4-dihydroisoquinolin-2(1H)-yl)-4-morpholinobut-2-en-1-one], the IC50 is more than 20 µM.
